Columns and labels:
[1] = molecular target: T1, human leukocyte elastase (HLE) (Homo sapiens, UniProt P08246); assay: IC50 determination, inhibition of human leukocyte elastase (HLE), hydrolysis of N-(methoxysuccinyl)-L-alanyl-L-alanyl-L-prolyl-L-valine 4-nitroanilide at 410 nm; assay type: biochemical; settings: 5 min incubation with the inhibitor; pH 7.5 Tris buffer
T1 construct: purchased Elastin Products Company, Inc. (Owensville, Mo.)
T1 sequence (P08246 30-267): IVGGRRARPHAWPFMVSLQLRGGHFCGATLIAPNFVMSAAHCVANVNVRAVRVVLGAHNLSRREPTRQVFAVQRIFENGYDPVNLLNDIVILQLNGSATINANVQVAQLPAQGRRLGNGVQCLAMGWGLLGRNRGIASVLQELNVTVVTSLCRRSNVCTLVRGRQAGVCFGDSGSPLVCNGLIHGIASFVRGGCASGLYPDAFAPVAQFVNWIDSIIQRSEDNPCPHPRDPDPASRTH

[2] = molecular target: porcine pancreatic elastase (PPE) (Sus scrofa, UniProt P00772); assay: IC50 determination, inhibition of porcine pancreatic elastase (PPE); assay type: biochemical; settings: 5 min incubation with the inhibitor
Chain of porcine pancreatic elastase (PPE) (P00772 27-266): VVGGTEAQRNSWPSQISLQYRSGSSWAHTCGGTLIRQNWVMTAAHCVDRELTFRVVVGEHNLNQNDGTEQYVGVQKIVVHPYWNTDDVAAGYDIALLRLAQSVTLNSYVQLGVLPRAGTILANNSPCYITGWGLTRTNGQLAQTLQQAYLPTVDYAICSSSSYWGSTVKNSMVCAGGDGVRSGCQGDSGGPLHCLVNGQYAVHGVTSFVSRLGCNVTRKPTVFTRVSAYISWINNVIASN

IC50 [1] [µM]	IC50 [2] [µM]	Structure (SMILES)
0.49	–	CC(=O)OCC1=C(C(=O)OC(c2ccccc2)c2ccccc2)N2C(=O)/C(=C/C#N)[C@H]2S(=O)(=O)C1 [Compound 31, Benzhydryl 7-[(Z)-cyanomethylene]cephalosporanate sulfone]
2.56	> 10	CC(=O)OCC1=C(C(=O)OC(c2ccccc2)c2ccccc2)N2C(=O)C(=C(Cl)Cl)[C@H]2S(=O)(=O)C1 [Compound 23, Benzhydryl 7-[dichloromethylene]cephalosporanate sulfone]
> 10	> 10	CON(C)C(=O)/C=C1/C(=O)N2C(C(=O)OC(c3ccccc3)c3ccccc3)=C(COC(C)=O)CS(=O)(=O)[C@H]12 [Compound 27, Benzhydryl 7-[(Z)-N-methoxy-N-methylaminocarbonylmethylene]cephalosporanatesulfone]
> 10	6	CC(=O)/C=C1/C(=O)N2C(C(=O)OC(c3ccccc3)c3ccccc3)=C(COC(C)=O)CS(=O)(=O)[C@H]12 [Compound 29, Benzhydryl 7-[(Z)-acetylmethylene]cephalosporanate sulfone]
6.1	4.1	C=C=C1C(=O)N2C(C(=O)OC(c3ccccc3)c3ccccc3)=C(COC(C)=O)CS(=O)(=O)[C@H]12 [Compound 8, Benzhydryl 7-vinylidenecephalosporanate sulfone]
8.9	> 10	COC(=O)/C=C1/C(=O)N2C(C(=O)OC(c3ccccc3)c3ccccc3)=C(COC(C)=O)CS(=O)(=O)[C@H]12 [Compound 25, Benzhydryl 7-[(Z)-(methoxycarbonyl)methylene]cephalosporanate sulfone]
10.5	> 10	CC(=O)OCC1=C(C(=O)OC(c2ccccc2)c2ccccc2)N2C(=O)C(=C=CC(C)(C)C)[C@H]2S(=O)(=O)C1 [Compound 5a, Benzhydryl 7-t-butylvinylidene cephalosporanate sulfone]
> 10	> 10	CC(=O)OCC1=C(C(=O)OC(c2ccccc2)c2ccccc2)N2C(=O)/C(=C/c3ccccn3)[C@H]2S(=O)(=O)C1 [Compound 21, Benzhydryl 7-[(Z)-(2'-pyridyl)methylene]cephalosporanate sulfone]
6	> 10	CC(=O)OCC1=C(C(=O)OC(c2ccccc2)c2ccccc2)N2C(=O)/C(=C\c3ccccc3)[C@H]2S(=O)(=O)C1 [Compound 12, Benzhydryl 7-[(E)-benzylidene]cephalosporanate sulfone]
13.5	–	[2H]C(=C=C1C(=O)N2C(C(=O)OC(c3ccccc3)c3ccccc3)=C(COC(C)=O)CS(=O)(=O)[C@H]12)C(C)(C)C [Compound 5b]
> 10	–	CC(=O)OCC1=C(C(=O)OC(c2ccccc2)c2ccccc2)N2C(=O)/C(=C/C#N)[C@H]2SC1 [Compound 30, Benzhydryl 7-[(Z)-cyanomethylene]cephalosporanate]
8.9	> 10	CC(=O)OCC1=C(C(=O)OC(c2ccccc2)c2ccccc2)N2C(=O)/C(=C/c3ccccc3)[C@H]2S(=O)(=O)C1 [Compound 10, Benzhydryl 7-[(Z)-benzylidene]cephalosporanate sulfone]

The remaining lines, values behind:

Structure (SMILES)	IC50 [1] [µM]	IC50 [2] [µM]
CC(=O)OCC1=C(C(=O)OC(c2ccccc2)c2ccccc2)N2C(=O)[C@@H](N)[C@H]2SC1 [Compound 1, Benzhydryl 7β-aminocephalosporanate]	> 10	> 10
CC(=O)OCC1=C(C(=O)OC(c2ccccc2)c2ccccc2)N2C(=O)/C(=C/C=O)[C@H]2SC1 [Compound 19, Benzhydryl 7-[(Z)-formylmethylene]cephalosporanate]	13.9	5.2
CC(=O)OCC1=C(C(=O)OC(c2ccccc2)c2ccccc2)N2C(=O)/C(=C/c3ccccn3)[C@H]2SC1 [Compound 20, Benzhydryl 7-[(Z)-(2'-pyridyl)methylene]cephalosporanate]	> 10	> 10
CC(=O)OCC1=C(C(=O)OC(c2ccccc2)c2ccccc2)N2C(=O)/C(=C/CO)[C@H]2SC1 [Compound 26, Benzhydryl 7-[(Z)-(hydroxymethyl)methylene]cephalosporanate]	> 10	> 10
CC(=O)OCC1=C(C(=O)OC(c2ccccc2)c2ccccc2)N2C(=O)C[C@H]2SC1 [Compound 33, reference compound]	> 10	> 10
CO[C@H]1C(=O)N2C(C(=O)OC(c3ccccc3)c3ccccc3)=C(COC(C)=O)CS(=O)(=O)[C@H]12 [Compound 37, reference compound]	0.28	–
CC(=O)OCC1=C(C(=O)OC(c2ccccc2)c2ccccc2)N2C(=O)/C(=C\c3ccccc3)[C@H]2SC1 [Compound 11, Benzhydryl 7-[(E)-benzylidene]cephalosporanate]	> 10	> 10
CO[C@H]1C(=O)N2C(C(=O)OC(c3ccccc3)c3ccccc3)=C(COC(C)=O)CS[C@H]12 [Compound 36, reference compound]	5.35	–
CC(=O)OCC1=C(C(=O)OC(c2ccccc2)c2ccccc2)N2C(=O)C(=O)[C@H]2SC1 [Compound 2, Benzhydryl 7-oxocephalosporanate]	> 10	> 10
CC(=O)OCC1=C(C(=O)OC(c2ccccc2)c2ccccc2)N2C(=O)/C(=C/C(=O)OC(C)(C)C)[C@H]2SC1 [Compound 17, Benzhydryl 7-[(Z)-t-butoxycarbonylmethylene]cephalosporanate]	> 10	–
CC(=O)OCC1=C(C(=O)OC(c2ccccc2)c2ccccc2)N2C(=O)/C(=C/C(=O)OC(C)(C)C)[C@H]2S(=O)(=O)C1 [Compound 18, Benzhydryl 7-[(Z)-(t-butoxycarbonyl)methylene]-cephalosporanate sulfone]	7.1	> 10
CC(=O)OCC1=C(C(=O)OC(c2ccccc2)c2ccccc2)N2C(=O)/C(=C/c3ccccc3)[C@H]2SC1 [Compound 9, benzhydryl 7-[(Z)-benzylidene] cephalosporanate]	> 10	> 10
COC(=O)/C(Br)=C1/C(=O)N2C(C(=O)OC(c3ccccc3)c3ccccc3)=C(COC(C)=O)CS[C@H]12 [Compound 32, Benzhydryl 7-{[(E)-bromo-(Z)-methoxycarbonyl]methylidene} cephalosporanate]	0.21	–
C=C=C1C(=O)N2C(C(=O)OC(c3ccccc3)c3ccccc3)=C(COC(C)=O)CS[C@H]12 [Compound 7, Benzhydryl 7-vinylidenecephalosporanate]	9	0.67
CC(=O)OCC1=C(C(=O)OC(c2ccccc2)c2ccccc2)N2C(=O)C(=C=CC(C)(C)C)[C@H]2SC1 [Compound 4, Benzhydryl 7-(t-butylvinylidene)cephalosporanate]	> 10	5.5
CC(=O)OCC1=C(C(=O)OC(c2ccccc2)c2ccccc2)N2C(=O)C(=C=CBr)[C@H]2SC1 [Compound 6, Benzhydryl 7-(-bromovinylidene)cephalosporanate]	5.4	> 10
